Experimental data: a compilation of properties of binary mixtures (doi:10.1016/j.electacta.2009.09.024)

Experiment: xn = mol fraction of the nth substance listed
Conditions: 100 kPa, x2 = 0.25

O=S(=O)([N-]S(=O)(=O)C(F)(F)F)C(F)(F)F.[Rb+] + O=S(=O)([N-]S(=O)(=O)C(F)(F)F)C(F)(F)F.[Li+]
Conditions | electrical conductivity [S/m] | viscosity [mPa·s]
442.2 K | 0.822 | –
442.5 K | – | 63.2
452.2 K | 1.05 | –
462.7 K | 1.28 | –
473.7 K | 1.52 | –
473.9 K | – | 28.1
482.9 K | 1.86 | –
492.3 K | 2.15 | –
492.6 K | – | 17.9
502.4 K | 2.48 | –
502.5 K | – | 14.3
512.8 K | – | 11.8
523.1 K | 3.2 | –
543.3 K | 4.03 | –
543.5 K | – | 7.21
551.9 K | 4.33 | –
552.5 K | – | 6.61
561.2 K | 4.79 | –
561.8 K | – | 5.8
571.1 K | 5.08 | –
